# Key:
# [1] = in vitro; settings: monkey (simian)
# [2] = in vitro; settings: cat
# [3] = system: FCV; assay: Feline corona virus assay in Feline Crandel kidney cells (MTS); type: cell-based; settings: Felis catus, read-out: EC50 FCV
# Experimental: Feline Crandel kidney cells were seeded in 96-well microtiter plates at 24,000 cells/well. Then, 24 hrs later, an appropriate inoculum of FCV is added together with 5-fold dilutions of the test compounds. After 4 days, a MTS/PMS solution was added to each well. Following a 90 min incubation period at 37° C., the optical density of the wells was read at 498 nm in a microplate reader.
# [4] = system: SARS virus (strain Frankfurt-1); assay: microbe, parasite or virus in culture; type: cell-based, human corona (SARS) virus; settings: Severe acute respiratory syndrome coronavirus, Vero, read-out: EC50 SARS virus
# [5] = system: HEL cells; settings: anti-VZV table
# [6] = in vitro; settings: human
# [7] = system: VZV (wild-type strains); assay: Anti-VZV assay (wild-type strains): virus-induced cytopathicity in HEL cell cultures; type: cell-based, varicella-zoster virus; settings: Human alphaherpesvirus 3; VZV strain OKA, HEL cell cultures; read-out: EC50 VZV (OKA)
# [8] = system: HIV-1 (IIIB); assay: Inhibition of HIV-1 (IIIB)-induced cytopathicity (giant cell formation) in CEM cells; type: cell-based; settings: read-out: EC50 HIV-1 (concentration required to inhibit HIV-induced giant cell formation by 50%); HIV-1, CEM cell cultures
# Experimental: (§1) A variety of glycopeptide antibiotic derivatives of vancomycin, eremomycin and teicoplanin including their aglycon derivatives were evaluated for their inhibitory activity against HIV-1 (IIIB) and HIV-2(ROD) in CEM cell cultures.
# [9] = system: HIV; assay: Selection of resistant HIV strains in cell culture; type: cell-based; settings: ≧9 weeks of attempts in cell culture
# [10] = system: human lymphocyte Molt4/clone 8; assay: Cytostatic activity assay, Molt4/clone 8 cells; type: cell-based; settings: read-out: IC50 Molt4/C8 (compound concentration required to inhibit tumor cell proliferation by 50%)
# [11] = system: murine leukemia L1210; assay: Cytostatic activity assay, L1210 cells; type: cell-based; settings: read-out: IC50 L1210 (compound concentration required to inhibit tumor cell proliferation by 50%)
# [12] = system: human lymphocyte CEM; assay: Cytostatic activity assay, CEM cells; type: cell-based; settings: read-out: IC50 CEM (compound concentration required to inhibit tumor cell proliferation by 50%)
# [13] = system: HIV-2(ROD); assay: Inhibition of HIV-2 (ROD)-induced cytopathicity (giant cell formation) in CEM cells; type: cell-based; settings: read-out: EC50 HIV-2 (concentration required to inhibit HIV-induced giant cell formation by 50%); HIV-2, CEM cell cultures
# Experimental: as §1
# [14] = system: HIV; assay: Time of addition experiment (HIV); type: cell-based
smiles,measurement,setting,value
COC(=O)C1NC(=O)C2NC(=O)C(NC(=O)C(NC(=O)OC(C)(C)C)c3cc(Oc4ccc(CC(NC(=O)OCc5ccccc5)C(=O)O)cc4Cl)c(O)c(c3)Oc3ccc(cc3Cl)C2O)c2ccc(O)c(c2)-c2c(O)cc(O)cc21 (centres unmarked) [Compound 170],CC50,[1],> 100 µM
same,CC50,[2],> 100 µM
same,EC50,[3],23 µM
same,EC50,[4],32 µM
NC1Cc2ccc(c(Cl)c2)Oc2cc3cc(c2O)Oc2ccc(cc2Cl)C(O)C2NC(=O)C(NC(=O)C3NC(=O)C(c3cc(O)cc(Oc4cc(C5NC(=S)N(c6ccccc6)C5=O)ccc4O)c3)NC1=O)c1ccc(O)c(c1)-c1c(O)cc(O)cc1C(C(=O)O)NC2=O (centres unmarked) [Compound 171],CC50,[1],> 100 µM
same,CC50,[2],> 100 µM
same,EC50,[4],29 µM
COC(=O)C1NC(=O)C2NC(=O)C(NC(=O)C(N)c3cc(Oc4ccc(CC(NC(=O)OCc5ccccc5)C(=O)O)cc4Cl)c(O)c(c3)Oc3ccc(cc3Cl)C2O)c2ccc(O)c(c2)-c2c(O)cc(O)cc21 (centres unmarked) [Compound 169],MTC (HEL),[5],>200 µM
same,CC50,[6],50 µM
same,EC50,[7],34 µM
CCCCCCCCCCNCc1c(O)cc2c(c1O)-c1cc(ccc1O)C1NC(=O)C3NC(=O)C4NC(=O)C(Cc5ccc(c(Cl)c5)Oc5cc3cc(c5O)Oc3ccc(cc3Cl)C(O)C(NC1=O)C(=O)NC2C(=O)NCCCN(C)C)NC(=O)C(N)c1ccc(O)c(c1)Oc1cc(O)cc4c1 (centres unmarked) [Compound 15],EC50,[8],1.4 ± 0.6 µM
same,selection of resistant virus strains,[9],failed
same,IC50,[10],> 100 µM
same,IC50,[11],48 ± 8 µM
same,IC50,[12],> 100 µM
same,EC50,[13],6 ± 3.9 µM
"Cc1cn([C@H]2C[C@H](N=[N+]=[N-])[C@@H](CO)O2)c(=O)[nH]c1=O [AZT, zidovudine]",time post infection up to which addition can be delayed without loss of antiviral activity,[14],at least 3 h
